Drawing on patent US11548875B2, “Inhibitor compounds for male contraception” (University of Washington, priority 2018, dated 2023), this text covers EC50 for 24 compounds.

The target in test [1] is T1, ALDH1A1 (Homo sapiens, UniProt P00352).
T1 sequence (P00352 1-501): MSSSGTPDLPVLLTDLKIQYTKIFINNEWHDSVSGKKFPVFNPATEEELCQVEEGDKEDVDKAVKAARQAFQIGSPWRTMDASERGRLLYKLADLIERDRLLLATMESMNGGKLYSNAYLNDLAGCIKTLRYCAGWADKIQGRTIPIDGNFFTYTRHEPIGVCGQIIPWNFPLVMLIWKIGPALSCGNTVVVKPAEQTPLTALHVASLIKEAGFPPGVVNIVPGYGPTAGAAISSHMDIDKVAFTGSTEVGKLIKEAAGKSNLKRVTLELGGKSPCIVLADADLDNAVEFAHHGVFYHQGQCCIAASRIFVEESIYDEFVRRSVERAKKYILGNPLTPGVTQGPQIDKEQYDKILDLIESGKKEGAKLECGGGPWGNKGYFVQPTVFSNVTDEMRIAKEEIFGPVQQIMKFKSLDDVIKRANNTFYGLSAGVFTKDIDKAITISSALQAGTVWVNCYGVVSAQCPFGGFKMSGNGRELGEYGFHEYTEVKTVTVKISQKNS
Put plainly: Cell-based enzyme assay, retinoic acid production in ALDH1A1/H1299 cells. In a few lines: (§1)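 ALDH1A1- or ALDH1A2-stably transfected H1299 cells grown to confluence, then treated 20 h in serum-free RPMI-1640 with 2 μM all-trans-retinal plus varying inhibitor concentrations at 37 °C. Retinoic acid in cells and media quantified; inhibition from RA levels with vs without inhibitor.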

Test [2] has as its target T2, ALDH1A2 (Homo sapiens, UniProt O94788).
T2 sequence (O94788 1-518): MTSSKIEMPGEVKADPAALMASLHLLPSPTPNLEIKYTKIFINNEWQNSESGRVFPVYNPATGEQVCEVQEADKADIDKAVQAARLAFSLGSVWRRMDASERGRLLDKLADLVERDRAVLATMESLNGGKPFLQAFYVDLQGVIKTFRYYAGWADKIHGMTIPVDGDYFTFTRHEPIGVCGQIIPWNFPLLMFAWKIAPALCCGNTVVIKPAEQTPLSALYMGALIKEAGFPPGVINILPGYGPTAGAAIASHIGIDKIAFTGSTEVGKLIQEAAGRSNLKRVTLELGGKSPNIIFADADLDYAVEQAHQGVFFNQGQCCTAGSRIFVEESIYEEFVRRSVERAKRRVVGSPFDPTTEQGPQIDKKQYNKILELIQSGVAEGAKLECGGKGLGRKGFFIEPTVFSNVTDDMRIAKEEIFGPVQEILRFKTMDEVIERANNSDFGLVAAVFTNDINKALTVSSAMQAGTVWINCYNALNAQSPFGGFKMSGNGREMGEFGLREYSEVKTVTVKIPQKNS
Put plainly: Cell-based enzyme assay, retinoic acid production in ALDH1A2/H1299 cells. Summed up: as §1

Structures can show the parent of a compound that is named as a salt. Where two headings read alike, the source gives them in different places. Bounds are passed on as bounds.

What is called EC50 is the concentration needed to bring the measured effect to its halfway point. Read a high EC50 as a need for much substance. For the compound `Cc1cc(C(=O)N2CCN(c3ccc([N+](=O)[O-])c(N4CCCC4)c3)CC2)sc1C` [Compound 327, {4-[4-Nitro-3-(pyrrolidin-1-yl)phenyl]piperazin-1-yl}(4,5-dimethylthiophen-2-yl)methanone], the EC50 was over 0.5 µM in test [1] and 0.862 µM in test [2].
`CS(=O)(=O)c1ccc(-c2nn(-c3ccccc3)cc2C(=O)Nc2cccc(F)c2)cc1` [Compound 178, 3-(4-(Methylsulfonyl)phenyl)-N-(3-fluorophenyl)-1-phenyl-1H-pyrazole-4-carboxamide]: the EC50 in test [1] (cell-based) is 5.5 µM; in test [2] (cell-based), 0.065 µM.
With `O=C(c1ccc(F)s1)N1CCN(c2ccc([N+](=O)[O-])c(N3CCCC3)c2)CC1` [Compound 334, {4-[4-Nitro-3-(pyrrolidin-1-yl)phenyl]piperazin-1-yl}(5-fluorothiophen-2-yl)methanone], the EC50 in test [1] is 0.26 µM; in test [2], 0.377 µM.
Turning to `O=Cc1cn(-c2ccccc2)nc1-c1ccc(O)cc1` [Cmpd 34], the EC50 in test [1] (cell-based) worked out at 0.469 µM; in test [2] (cell-based) it was 0.798 µM.
Regarding `CS(=O)(=O)c1ccc(-c2nn(-c3ccccc3)cc2C(=O)Nc2cccc(Cl)c2)cc1` [Compound 219, 3-(4-(Methylsulfonyl)phenyl)-N-(3-chlorophenyl)-1-phenyl-1H-pyrazole-4-carboxamide], the EC50 in test [1] (cell-based) was over 20 µM; in test [2] (cell-based) it was 0.11 µM.
Taken in the same sequence, the figures for `CS(=O)(=O)c1ccc(-c2nn(-c3cccc(C#N)c3)cc2C(=O)Nc2ccc(F)c(F)c2)cc1` [Compound 269, 1-(3-Cyanophenyl)-N-(3,4-difluorophenyl)-3-[4-(methylsulfonyl)phenyl]-1H-pyrazole-4-carboxamide] were 3.56 µM and 0.045 µM.
Regarding `CS(=O)(=O)c1ccc(-c2nn(-c3ccc(F)cc3)cc2C(=O)Nc2cccc(F)c2)cc1` [Compound 241, N-(3-Fluorophenyl)-3-[4-(methylsulfonyl)phenyl]-1-(4-fluorophenyl)-1H-pyrazole-4-carboxamide], the EC50 in test [1] (cell-based) was 10.9 µM; in test [2] (cell-based) it was 0.056 µM.
On to `CS(=O)(=O)c1ccc(-c2nn(-c3cccc(C#N)c3)cc2C(=O)Nc2cccc(F)c2)cc1` [Compound 268, 1-(3-Cyanophenyl)-N-(3-fluorophenyl)-3-[4-(methylsulfonyl)phenyl]-1H-pyrazole-4-carboxamide], for which the EC50 in test [1] (cell-based) came out at 2.43 µM; in test [2] (cell-based) it was 0.026 µM.
Consider `Cn1cccc1C(=O)N1CCN(c2ccc([N+](=O)[O-])c(N3CCCC3)c2)CC1` [Compound 343, [4-(4-Nitro-3-(pyrrolidin-1-yl)phenyl)piperazin-1-yl](1-methyl-1H-pyrrol-2-yl)methanone], for which the EC50 in test [1] and in test [2] was under 0.5 µM throughout.
Consider `CC(=O)Nc1ccsc1C(=O)N1CCN(c2ccc([N+](=O)[O-])c(N3CCCC3)c2)CC1` [Compound 332], for which the EC50 is 0.413 µM in test [1] and 0.437 µM in test [2].
`COc1ccsc1C(=O)N1CCN(c2ccc([N+](=O)[O-])c(N3CCCC3)c2)CC1` [Compound 329, {4-[4-Nitro-3-(pyrrolidin-1-yl)phenyl]piperazin-1-yl}(3-methoxythiophen-2-yl)methanone]: the EC50 in test [1] and in test [2] was under 0.5 µM in each case.
On to `COc1ccc(C(=O)N2CCN(c3ccc([N+](=O)[O-])c(N4CCCC4)c3)CC2)cc1` [Compound 345, 4-Methoxyphenyl-1-{4-[4-nitro-3-(pyrrolidin-1-yl)phenyl]piperazin-1-yl}methanone], for which the EC50 in test [1] was under 0.5 µM; in test [2], 1.19 µM.
Consider `O=C(c1ccc(Cl)cc1)N1CCN(c2ccc([N+](=O)[O-])c(N3CCCC3)c2)CC1` [Compound 342, 4-Chlorophenyl-1-{4-[4-nitro-3-(pyrrolidin-1-yl)phenyl]piperazin-1-yl}methanone], for which the EC50 in test [1] worked out at 0.468 µM; in test [2] it was 0.966 µM.
Consider `CS(=O)(=O)c1ccc(-c2nn(-c3ccc(Cl)cc3)cc2C(=O)Nc2ccccc2O)cc1` [Compound 233, N-(2-Hydroxyphenyl)-3-[4-(methylsulfonyl)phenyl]-1-(4-chloropheny)-1H-pyrazole-4-carboxamide], for which the figures for the EC50 in test [1] (cell-based) and in test [2] (cell-based) were 13.2 µM and 0.055 µM, respectively.
As to `CS(=O)(=O)c1ccc(-c2nn(-c3ccc(OC(F)(F)F)cc3)cc2C(=O)Nc2cccc(F)c2)cc1` [Compound 258, N-(3-Fluorophenyl)-1-(4-trifluoromethoxypheny)-3-[4-(methylsulfonyl)phenyl]-1H-pyrazole-4-carboxamide], the figures for the EC50 in test [1] (cell-based) and in test [2] (cell-based) were 26.4 µM and 0.051 µM, respectively.
Taken in the same sequence, the figures for `CS(=O)(=O)c1ccc(-c2nn(-c3cccc(F)c3)cc2C(=O)Nc2cccc(C(F)(F)F)c2)cc1` [Compound 266, 1-(3-Fluorophenyl)-N-(3-trifluoromethylphenyl)-3-[4-(methylsulfonyl)phenyl]-1H-pyrazole-4-carboxamide] were over 20 µM and 0.354 µM.
On the same counts, the results for `CCS(=O)(=O)c1ccc(-c2nn(-c3ccccc3)cc2C(=O)Nc2cccc(F)c2)cc1` [Compound 223, 3-(4-(Ethylsulfonyl)phenyl)-N-(3-fluorophenyl)-1-phenyl-1H-pyrazole-4-carboxamide] are 1.3 µM and 0.088 µM.
On to `CS(=O)(=O)c1ccc(-c2nn(-c3ccc(C#N)cc3)cc2C(=O)Nc2cccc(C(F)(F)F)c2)cc1` [Compound 262, 1-(4-Cyanophenyl)-N-(3-trifluoromethylphenyl)-3-[4-(methylsulfonyl)phenyl]-1H-pyrazole-4-carboxamide], for which the EC50 was over 20 µM in test [1] (cell-based) and 0.016 µM in test [2] (cell-based).
On the same counts, the results for `CS(=O)(=O)c1ccc(-c2nn(-c3ccccc3)cc2C(=O)Nc2cccc(O)c2)cc1` [Compound 211, 3-(4-(Methylsulfonyl)phenyl)-N-(3-hydroxyphenyl)-1-phenyl-1H-pyrazole-4-carboxamide] are 2 µM and 0.12 µM.
On to `CN(C)c1ccc(C(=O)N2CCN(c3ccc([N+](=O)[O-])c(N4CCCC4)c3)CC2)cc1` [Compound 346, 4-Dimethylaminophenyl-1-{4-[4-nitro-3-(pyrrolidin-1-yl)phenyl]piperazin-1-yl}methanone], for which the figures for the EC50 in test [1] and in test [2] were under 0.5 µM and 1.42 µM, respectively.
Taken in the same sequence, the figures for `CCc1ccc(C(=O)N2CCN(c3ccc([N+](=O)[O-])c(N4CCCC4)c3)CC2)s1` [Compound 323, {4-[4-Nitro-3-(pyrrolidin-1-yl)phenyl]piperazin-1-yl}(5-ethylthiophen-2-yl)methanone] were 0.195 µM and 0.457 µM.
For `CCOc1ccsc1C(=O)N1CCN(c2ccc([N+](=O)[O-])c(N3CCCC3)c2)CC1` [Compound 326, {4-[4-Nitro-3-(pyrrolidin-1-yl)phenyl]piperazin-1-yl}(3-ethoxythiophen-2-yl)methanone], the EC50 in test [1] was found to be 0.44 µM; in test [2], 0.11 µM.
With `Nc1ccsc1C(=O)N1CCN(c2ccc([N+](=O)[O-])c(N3CCCC3)c2)CC1` [Compound 331, {4-[4-Nitro-3-(pyrrolidin-1-yl)phenyl]piperazin-1-yl}(3-aminothiophen-2-yl)methanone hydrochloride], the EC50 in test [1] was found to be 0.088 µM; in test [2], 0.121 µM.
Regarding `CS(=O)(=O)c1ccc(-c2nn(-c3ccccc3)cc2C(=O)Nc2cccc(F)c2O)cc1` [Compound 231, N-(3-Fluoro-2-hydroxyphenyl)-3-[4-(methylsulfonyl)phenyl]-1-phenyl-1H-pyrazole-4-carboxamide], the EC50 is over 20 µM in test [1] (cell-based) and 0.069 µM in test [2] (cell-based).
